Experimental data published in US20130281465A1, “PYRAZOLE DERIVATIVE” (TAISHO PHARMACEUTICAL CO., LTD., priority 2010, published 2013).

Experiments:
[1] = biological target: T1, human orexin type 1 receptor (hOX1R) (Homo sapiens, UniProt O43613); test: Orexin receptor antagonistic activity, intracellular Ca2+ fluorescence (FDSS) in CHO cells expressing hOX1R; assay type: cell-based; conditions: CHO cells forced to express hOX1R; orexin-A analogue peptide ligand 300 pM; Fluo-4 maximum fluorescence; read-out: IC50 value OX1R
T1 construct: expressed in transfected cells; host or cells: Chinese hamster ovary (CHO) cells
T1 sequence (O43613 1-425): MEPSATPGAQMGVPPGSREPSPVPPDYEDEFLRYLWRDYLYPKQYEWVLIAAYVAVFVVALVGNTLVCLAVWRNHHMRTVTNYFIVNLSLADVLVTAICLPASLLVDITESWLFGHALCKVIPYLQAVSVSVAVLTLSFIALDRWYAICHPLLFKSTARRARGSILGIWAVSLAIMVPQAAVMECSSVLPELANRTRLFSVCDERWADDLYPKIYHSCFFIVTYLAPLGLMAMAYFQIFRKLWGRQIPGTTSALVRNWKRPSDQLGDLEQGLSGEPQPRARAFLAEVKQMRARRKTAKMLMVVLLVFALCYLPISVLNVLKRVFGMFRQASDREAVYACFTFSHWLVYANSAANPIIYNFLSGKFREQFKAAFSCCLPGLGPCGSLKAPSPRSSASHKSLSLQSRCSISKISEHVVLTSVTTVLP
Experimental: (§1) The antagonistic activity of each test compound against human orexin type 1 receptor (hOX1R) and orexin type 2 receptor (hOX2R) was performed as described in the literature with a modification (Toshikatsu Okumura et al., Biochemical and Biophysical Research Communications 280, 976-981, 2001). Chinese hamster ovary (CHO) cells forced to express hOX1R or hOX2R were seeded at 20,000 cells/well on a 96 well Black clear bottom plates (Nunc) and cultured for 16 hours under conditions of 37° C. and 5% CO2 using a Ham's F-12 medium containing 0.1 mM MEM non-essential amino acids, 0.5 mg/ml G418, and 10% fetal bovine serum (all from Invitrogen Corp.). After removal of the medium, 100 μL of the assay buffer (25 mM HEPES (Dojindo Laboratories), Hanks' balanced salt solution (Invitrogen Corp.), 0.1% bovine serum albumin, 2.5 mM probenecid, 200 μg/ml Amaranth (all from Sigma-Aldrich Corp.), pH 7.4) containing 0.5 μM Fluo-4AM ester (Dojindo Laboratories) was added thereto, and the cells were incubated for 60 minutes under conditions of 37° C. and 5% CO2. After removal of the buffer solution for assay containing Fluo-4AM ester, the test compound was dissolved at a concentration of 10 mM in dimethyl sulfoxide and diluted with the assay buffer, and 150 μL of the diluted solution was then added to each wells, which were then incubated for 30 minutes.
(§2) A peptide (Pyr-[…]11e-Leu-Thr-Leu-NH2; Peptide Institute, Inc.) substituted 2 amino acids of human orexin-A was diluted with the assay buffer to 300 pM (final concentration for hOX1R) or 3 nM (final concentration for hOX2R). 50 μL of this ligand solution was added thereto to start reaction. During the reaction, the fluorescence value of each well was measured every one second for 3 minutes using Functional Drug Screening System (FDSS; manufactured by Hamamatsu Photonics K.K.), and antagonistic activity was determined with the maximum fluorescence value as an index for intracellular Ca^2+ concentration. The antagonistic activity of the test compound was calculated with the fluorescence value of a well supplemented with only a dilution buffer solution as 100% and the fluorescence value of a well supplemented with a buffer solution containing neither the ligand nor the compound as 0%, and determined in terms of 50% inhibitory concentration (IC50 value) from fluorescence values derived from the test compound added at varying concentrations.

[2] = biological target: T2, orexin type 2 receptor (hOX2R) (Homo sapiens, UniProt O43614); test: Orexin receptor antagonistic activity, intracellular Ca2+ fluorescence (FDSS) in CHO cells expressing hOX2R; assay type: cell-based; conditions: CHO cells forced to express hOX2R; orexin-A analogue peptide ligand 3 nM; Fluo-4 maximum fluorescence; read-out: IC50 value OX2R
T2 construct: expressed in transfected cells; host or cells: Chinese hamster ovary (CHO) cells
T2 sequence (O43614 1-444): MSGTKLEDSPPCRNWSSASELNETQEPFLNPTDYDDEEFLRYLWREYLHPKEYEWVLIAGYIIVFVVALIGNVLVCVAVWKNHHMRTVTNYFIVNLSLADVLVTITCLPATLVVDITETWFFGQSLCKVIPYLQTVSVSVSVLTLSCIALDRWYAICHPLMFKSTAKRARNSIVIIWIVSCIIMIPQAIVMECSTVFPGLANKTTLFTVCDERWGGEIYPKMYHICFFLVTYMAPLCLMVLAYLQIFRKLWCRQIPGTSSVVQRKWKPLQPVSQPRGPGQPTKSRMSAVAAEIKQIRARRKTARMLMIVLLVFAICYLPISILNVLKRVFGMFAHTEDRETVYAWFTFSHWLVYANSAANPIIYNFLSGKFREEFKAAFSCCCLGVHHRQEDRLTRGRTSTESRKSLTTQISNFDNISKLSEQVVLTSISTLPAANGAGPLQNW
Experimental: as §1, §2

Structure (SMILES)	IC50 [1]	IC50 [2]
CCN(CCn1ccc(-c2ccc(C(F)(F)F)cn2)n1)C(=O)c1cc(C)ccc1-n1nccn1 [Example 51, N-ethyl-5-methyl-2-(2H-1,2,3-triazol-2-yl)-N-(2-{3-[5-(trifluoromethyl)pyridin-2-yl]-1H-pyrazol-1-yl}ethyl)benzamide]	0.0509 µM	0.394 µM
CCN(CCn1ccc(-c2cccc(C(F)(F)F)n2)n1)C(=O)c1cc(C)ccc1-n1nccn1 [Example 52, N-ethyl-5-methyl-2-(2H-1,2,3-triaz ° 1-2-yl)-N-(2-{3-[6-(trifluoromethyl)pyridin-2-yl]-1H-pyrazol-1-yl}ethyl)benzamide]	0.0011 µM	0.0013 µM
CCN(CCn1ccc(-c2ccc(F)c(F)c2)n1)C(=O)c1cc(F)ccc1-c1ncccn1 [Example 53, N-{2-[3-(3,4-difluorophenyl)-1H-pyrazol-1-yl]ethyl}-N-ethyl-5-fluoro-2-(pyrimidin-2-yl)benzamide]	0.0015 µM	0.0078 µM
CCN(CCn1ccc(-c2ccc(F)cc2)n1)C(=O)c1cc(F)ccc1-c1ncccn1 [Example 54, N-ethyl-5-fluoro-N-{2-[3-(4-fluorophenyl)-1H-pyrazol-1-yl]ethyl}-2-(pyrimidin-2-yl)benzamide]	0.002 µM	0.0192 µM
CCN(CCn1cc(-c2ccc(F)cn2)cn1)C(=O)c1cc(Cl)ccc1-n1nccn1 [Example 55, 5-Chloro-N-ethyl-N-{2-[4-(5-fluoropyridin-2-yl)-1H-pyrazol-1-yl]ethyl}-2-(2H-1,2,3-triazol-2-yl)benzamide]	0.0016 µM	0.0023 µM
CCN(CCn1cc(-c2ccc(F)cn2)cn1)C(=O)c1cc(F)ccc1-n1nccn1 [Example 56, N-ethyl-5-fluoro-N-{2-[4-(5-fluoropyridin-2-yl)-1H-pyrazol-1-yl]ethyl}-2-(2H-1,2,3-triazol-2-yl)benzamide]	0.038 µM	0.0959 µM
CCN(CCn1ccc(-c2cccc(C(F)(F)F)n2)n1)C(=O)c1cc(F)ccc1-c1ncccn1 [Example 57, N-ethyl-5-fluoro-2-(pyrimidin-2-yl)-N-(2-{3-[6-(trifluoromethyl)pyridin-2-yl]-1H-pyrazol-1-yl}ethyl)benzamide]	0.0229 µM	0.0995 µM
CCN(CCn1ccc(-c2cccc(C(F)(F)F)n2)n1)C(=O)c1ccccc1-c1ncccn1 [Example 58, N-ethyl-(pyrimidin-2-yl)-N-(2-{3-[6-(trifluoromethyl)pyridin-2-yl]-1H-pyrazol-1-yl}ethyl)benzamide]	0.0789 µM	0.14 µM
CCN(CCn1ccc(-c2ccc(F)c(F)c2)n1)C(=O)c1ccccc1-c1ncccn1 [Example 59, N-{2-[3-(3,4-difluorophenyl)-1H-pyrazol-1-yl]ethyl}-N-ethyl-2-(pyrimidin-2-yl)benzamide]	0.0019 µM	0.0056 µM
CCN(CCn1ccc(-c2cc(C(F)(F)F)ccn2)n1)C(=O)c1cc(C)ccc1-n1nccn1 [Example 60, N-ethyl-5-methyl-2-(2H-1,2,3-triazol-2-yl)-N-(2-{3-[4-(trifluoromethyl)pyridin-2-yl]-1H-pyrazol-1-yl}ethyl)benzamide]	0.0219 µM	0.127 µM
CCN(CCn1ccc(-c2cc(C(F)(F)F)ccn2)n1)C(=O)c1cc(F)ccc1-c1ncccn1 [Example 61, N-ethyl-5-fluoro-2-(pyrimidin-2-yl)-N-(2-{3-[4-(trifluoromethyl)pyridin-2-yl]-1H-pyrazol-1-yl}ethyl)benzamide]	0.239 µM	1.13 µM
